The structures appear in SMILES notation.

The experiment has as its target T1, RORc ligand binding domain (Homo sapiens, UniProt P51449).
T1 construct: host or cells: E. coli
T1 sequence (P51449 269-508 limits assumed): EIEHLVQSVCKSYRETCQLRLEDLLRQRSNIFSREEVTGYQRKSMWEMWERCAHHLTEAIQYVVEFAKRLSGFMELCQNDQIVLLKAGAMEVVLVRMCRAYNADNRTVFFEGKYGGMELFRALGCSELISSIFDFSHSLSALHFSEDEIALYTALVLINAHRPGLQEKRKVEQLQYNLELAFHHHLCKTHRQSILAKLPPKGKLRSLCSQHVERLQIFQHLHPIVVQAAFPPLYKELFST
Description: In Vitro RORc Ligand Binding Assay. Conditions: radioligand 25-[3H]hydroxycholesterol 6 nM; 0.6 ug/mL RORc receptor; 3 h at 25° C. The method, then: In Vitro RORc Ligand Binding Assay
This assay was used to determine a compound's potency in inhibiting activity of RORc by determining, Kiapp, IC50, or percent inhibition values.
On day of the assay, 100 uL of 0.05% CHAPS (in deionized H2O) was added to all wells of the GFB Unifilter plate and allowed soak for 1 h. A wash buffer of 50 mM HEPES (pH 7.4), 150 mM NaCl, and 5 mM MgCl2 was prepared to wash the filter plate. To prepare an assay buffer, BSA was added to the wash buffer to reach 0.01% and DTT was added to reach 1 mM.
For IC50 mode, 10 mM compound stocks were serially diluted in DMSO with DMSO to give 20× required final concentration in DMSO (15 uL compound+30 uL DMSO). The 20× compound stocks were diluted in DMSO with Assay Buffer 4-fold to reach 5× the final test concentration in 25% DMSO (10 uL compound+30 uL Assay Buffer). Solutions were mixed by aspiration several times with a pipette set on 50 uL volume. For the assay, 10 uL of 5× compound stock solutions in 25% DMSO were added to the assay plate in duplicate.
For two point screening, 10 mM stock compound solutions were diluted in DMSO to obtain 200 uM (20× the high test concentration) and then diluted 10-fold further to reach 20 uM (20× the low test concentration). The 20× stocks were diluted 4-fold with Assay Buffer (10 uL compound+30 uL Assay Buffer) to reach 5× the test concentrations (50 uM and 5 uM) and 10 uL were added to two assay plates for the duplicate wells. With each concentration tested on 2 plates, each set of 80 compounds used 4 assay plates (1 uM and 10 uM, with n=2).
25-hydroxycholesterol (1 uM) was used to determine the level of NSB signal is prepared in DMSO as for compounds above, then diluted in Assay Buffer to give a final concentration of 5 uM. For 25-hydroxycholesterol in 25% DMSO/75% Assay Buffer; 10 uL per well was used for NSB samples. Wells for Total Binding and No Receptor sample determination contained 10 uL of 25% DMSO/75% Assay Buffer per well.
25-[^3H]hydroxycholesterol was dilute in Assay Buffer to obtain 15 nM and vortex to mix. Add 20 uL to all wells to reach 6 nM final in the assay.
Stock receptor solution was diluted in assay buffer to obtain 1.5 ug/mL in Assay Buffer. 20 uL was added to all wells. For No R samples, 20 uL Assay Buffer was substituted for receptor solution.
Assay plates were 96-well polypropylene V-bottom plates. 10 uL of 5× compound in 25% DMSO/75% Assay Buffer was added to Test wells. 10 uL of 25% DMSO/75% Assay Buffer was added to Total Binding or No Receptor wells. 10 uL of 5 uM 25-hydroxycholesterol in 25% DMSO/75% Assay Buffer was added to NSB wells. 20 uL of 15 nM 25-[^3H]hydroxycholesterol prepared in Assay Buffer was added to all wells. 20 uL of 1.5 ug/mL RORc receptor was added to wells (or […] Assay Buffer to No R wells). Following addition to the wells, the plates were incubated 3 h at 25° C.
Using a Packard Filtermate Harvester, the filter plate were washed 4 times following transfer of the incubated samples. Plates were dry-filtered completely (2 h at 50° C. or overnight at room temperature). 50 uL Microscint 0 was added to all wells and read on Topcount protocol Inverted.
Final concentrations were as follows: 50 mM HEPES buffer (pH 7.4); 150 mM NaCl; 1 mM DTT; 5 mM MgCl2, 0.01% BSA; 5% DMSO; 0.6 ug/mL RORc receptor; 6 nM 25-[^3H]hydroxycholesterol. For NSB wells, 1 uM 25-hydroxycholesterol was also present.
By IC50 is commonly meant the point on the concentration scale where inhibition reaches its midpoint. A high value points to weaker potency in that assay. `CC1CCC(C2CCCCC2)S(=O)(=O)N1Cc1cc(F)c(N2CC3C(C2)C3n2cnnc2)cc1F` (single isomer, unassigned) [Compound 1, 3-[4-(6-Cyclohexyl-3-methyl-1,1-dioxo-[1,2]thiazinan-2-ylmethyl)-2,5-difluoro-phenyl]-6-[1,2,4]triazol-4-yl-3-aza-bicyclo [3.1.0]hexane] displayed an IC50 of 0.043 µM.

Take `CC1CCC(C2CCCCC2)S(=O)(=O)N1Cc1cc(F)c(N2CC3C(C2)C3n2cnnc2)cc1F` (single isomer, unassigned) [Compound 2, 3-[4-(6-Cyclohexyl-3-methyl-1,1-dioxo-[1,2]thiazinan-2-ylmethyl)-2,5-difluoro-phenyl]-6-[1,2,4]triazol-4-yl-3-aza-bicyclo [3.1.0]hexane]: the IC50 was found to be 0.07 µM. The result for `CC1CC[C@H](C)N(Cc2cc(F)c(N3C[C@@H]4C(n5cnnc5)[C@@H]4C3)cc2F)S1(=O)=O` (single isomer, unassigned) [Compound 5] reads 0.074 µM; that for `CC1CC[C@H](C)N(Cc2cc(F)c(N3C[C@@H]4C(n5cnnc5)[C@@H]4C3)cc2F)S1(=O)=O` (single isomer, unassigned) [Compound 6], 0.583 µM.

`CC(=O)N1CCN(c2ccc(CN3[C@@H](C)CCC(c4cccs4)S3(=O)=O)c(F)c2)CC1` (single isomer, unassigned) [Compound 7, 1-{4-[3-Fluoro-4-(3-methyl-1,1-dioxo-6-thiophen-2-yl-[1,2]thiazinan-2-ylmethyl)-phenyl]-piperazin-1-yl}-ethanone] displayed an IC50 of 0.018 µM. The result for `CC(=O)N1CCN(c2ccc(CN3[C@@H](C)CCC(c4ccncc4)S3(=O)=O)c(F)c2)CC1` (single isomer, unassigned) [Compound 8, 1-{4-[3-Fluoro-4-(3-methyl-1,1-dioxo-6-pyridin-4-yl-[1,2]thiazinan-2-ylmethyl)-phenyl]-piperazin-1-yl}-ethanone] reads 1 µM; that for `CC(=O)N1CCN(c2ccc(CN3[C@@H](C)CCC(c4ncccn4)S3(=O)=O)c(F)c2)CC1` (single isomer, unassigned) [Compound 9, 1-{4-[3-Fluoro-4-(3-methyl-1,1-dioxo-6-pyrimidin-2-yl-[1,2]thiazinan-2-ylmethyl)-phenyl]-piperazin-1-yl}-ethanone], 0.792 µM; that for `CC(=O)N1CCN(c2ccc(CN3[C@@H](C)CCC(c4ncccn4)S3(=O)=O)c(F)c2)CC1` (single isomer, unassigned) [Compound 10, 1-{4-[3-Fluoro-4-(3-methyl-1,1-dioxo-6-pyrimidin-2-yl-[1,2]thiazinan-2-ylmethyl)-phenyl]-piperazin-1-yl}-ethanone], 1.1 µM. `CC(=O)N1CCN(c2ccc(CN3[C@@H](C)CCC(c4ccncc4)S3(=O)=O)c(F)c2)CC1` (single isomer, unassigned) [Compound 11, 1-{4-[3-Fluoro-4-(3-methyl-1,1-dioxo-6-pyridin-4-yl-[1,2]thiazinan-2-ylmethyl)-phenyl]-piperazin-1-yl}-ethanone] displayed an IC50 of 2.2 µM.

For the compound `CC(=O)N1CCN(c2ccc(CN3[C@@H](C)CCC(c4ccsc4)S3(=O)=O)c(F)c2)CC1` (single isomer, unassigned) [Compound 12, 1-{4-[3-Fluoro-4-(3-methyl-1,1-dioxo-6-thiophen-3-yl-[1,2]thiazinan-2-ylmethyl)-phenyl]-piperazin-1-yl}-ethanone], the IC50 turned out to be 0.036 µM.

`CC(=O)N1CCN(c2ccc(CN3[C@@H](C)CCC(c4ccsc4)S3(=O)=O)c(F)c2)CC1` (single isomer, unassigned) [Compound 13, 1-{4-[3-Fluoro-4-(3-methyl-1,1-dioxo-6-thiophen-3-yl-[1,2]thiazinan-2-ylmethyl)-phenyl]-piperazin-1-yl}-ethanone] gave an IC50 of 0.123 µM.

On to `CC(=O)N1CCN(c2ccc(CN3[C@@H](C)CCC(c4cccnc4)S3(=O)=O)c(F)c2)CC1` (single isomer, unassigned) [Compound 14, 1-{4-[3-Fluoro-4-(3-methyl-1,1-dioxo-6-pyridin-3-yl-[1,2]thiazinan-2-ylmethyl)-phenyl]-piperazin-1-yl}-ethanone], for which the concentration for half-maximal inhibition (IC50) is 0.87 µM. The result for `CC(=O)N1CCN(c2ccc(CN3[C@@H](C)CCC(c4cccnc4)S3(=O)=O)c(F)c2)CC1` (single isomer, unassigned) [Compound 15, 1-{4-[3-Fluoro-4-(3-methyl-1,1-dioxo-6-pyridin-3-yl-[1,2]thiazinan-2-ylmethyl)-phenyl]-piperazin-1-yl}-ethanone] reads 4.2 µM. Then `CC(=O)N1CCN(c2ccc(CN3[C@@H](C)CCC(c4ccccn4)S3(=O)=O)c(F)c2)CC1` (single isomer, unassigned) [Compound 16, 1-{4-[3-Fluoro-4-(3-methyl-1,1-dioxo-6-pyridin-2-yl-[1,2]thiazinan-2-ylmethyl)-phenyl]-piperazin-1-yl}-ethanone], with 0.292 µM; and `CC(=O)N1CCN(c2ccc(CN3[C@@H](C)CCC(c4ccccn4)S3(=O)=O)c(F)c2)CC1` (single isomer, unassigned) [Compound 17], with 0.825 µM; and `C[C@H]1CCCS(=O)(=O)N1Cc1cc(F)c(N2C[C@@H]3C(n4cnnc4)[C@@H]3C2)cc1F` (stereo partly drawn) [Compound 22, (1S,5R,6S)-3-[2,5-Difluoro-4-((S)-3-methyl-1,1-dioxo-[1,2]thiazinan-2-ylmethyl)-phenyl]-6-[1,2,4]triazol-4-yl-3-aza-bicyclo [3.1.0]hexane], with 0.601 µM.
